Experimental data reported in US6423720B1, “Pyrimidine compounds and methods for making and using the same” (Duquesne University of the Holy Ghost, priority 2001, dated 2002).
pIC50: −log10 of the molar value. Marks after values point to notes of the source that are not given here.

Assays:
[1] = target: T1, dihydrofolate reductase (DHFR) from rat liver (RL) (Rattus norvegicus, UniProt Q920D2); assay: Inhibition of dihydrofolate reductase from rat liver (RL DHFR); assay type: biochemical; details: for pIC50: read-out: RL DHFR Inhibitory Concentration (IC50)
T1 construct: the IC50 value of the DHFR from rat liver (RL); from tissue; host or cells: rat liver
T1 sequence (Q920D2 1-187): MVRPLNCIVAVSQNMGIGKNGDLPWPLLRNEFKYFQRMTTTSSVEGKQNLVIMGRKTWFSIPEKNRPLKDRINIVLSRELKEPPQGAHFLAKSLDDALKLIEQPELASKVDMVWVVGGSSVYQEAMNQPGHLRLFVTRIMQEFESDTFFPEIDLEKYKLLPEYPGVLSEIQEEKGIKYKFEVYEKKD
Text: (§1) The following examples are intended to illustrate the invention, and should not be construed as limiting the invention in any way. Standard test procedures familiar to those skilled in the art were used in the examples, such as those procedures described by Gangjee, A., et al., in “5-Arylthio-substituted 2-amino-4-oxo-6-methyl pyrrolo[2,3-d]pyrimidine antifolates as thymidylate synthase inhibitors and antitumor agents”, J. Med. Chem., Vol. 38, pp. 4495-4502 (1995); “Effect of bridge region variation on antifolate and antitumor activity of classical 5-substituted 2,4-diamino furo [2,3-d]pyrimidines”, J. Med. Chem., Vol. 38, pp. 3798-3805 (1995); and “Novel 2 ,4-diamino-5-substituted-pyrrolo[2,3-d]pyrimidines As Classical and Non-Classical Antifolate Inhibitors of Dihydrofolate Reductases”, J. Med. Chem., Vol. 38, pp. 2158-2165 (Jun. 6, 1995) and references disclosed therein.
(§2) The compounds described in Table 1 were evaluated as inhibitors of dihydrofolate reductase (DHFR) from Toxoplasmosis gondii (Tx) and rat liver (RL). The evaluation of the compounds consisted of determining the IC50 values and selectivity ratios of each compound against Tx DHFR and RL DHFR. The IC50 value is the concentration of a compound required to inhibit the dihydrofolate reductase activity by 50 percent (%). […] The selectivity ratio is a measure of the selectivity of a compound for Tx DHFR and is expressed as the IC50 value of the DHFR from rat liver (RL) divided by the IC50 value of the Tx DHFR. For example, the selectivity ratio of a compound is calculated by the following formula: [formula]

[2] = target: T2, dihydrofolate reductase (DHFR) from Toxoplasmosis gondii (Tx) (Toxoplasma gondii, UniProt Q07422); assay: Inhibition of dihydrofolate reductase from Toxoplasmosis gondii (Tx DHFR); assay type: biochemical; details: for Selectivity Ratio: RL DHFR/Tx DHFR: IC50 RL DHFR divided by IC50 Tx DHFR; for pIC50: Toxoplasma gondii DHFR, read-out: Tx DHFR Inhibitory Concentration (IC50)
T2 sequence (Q07422 1-610): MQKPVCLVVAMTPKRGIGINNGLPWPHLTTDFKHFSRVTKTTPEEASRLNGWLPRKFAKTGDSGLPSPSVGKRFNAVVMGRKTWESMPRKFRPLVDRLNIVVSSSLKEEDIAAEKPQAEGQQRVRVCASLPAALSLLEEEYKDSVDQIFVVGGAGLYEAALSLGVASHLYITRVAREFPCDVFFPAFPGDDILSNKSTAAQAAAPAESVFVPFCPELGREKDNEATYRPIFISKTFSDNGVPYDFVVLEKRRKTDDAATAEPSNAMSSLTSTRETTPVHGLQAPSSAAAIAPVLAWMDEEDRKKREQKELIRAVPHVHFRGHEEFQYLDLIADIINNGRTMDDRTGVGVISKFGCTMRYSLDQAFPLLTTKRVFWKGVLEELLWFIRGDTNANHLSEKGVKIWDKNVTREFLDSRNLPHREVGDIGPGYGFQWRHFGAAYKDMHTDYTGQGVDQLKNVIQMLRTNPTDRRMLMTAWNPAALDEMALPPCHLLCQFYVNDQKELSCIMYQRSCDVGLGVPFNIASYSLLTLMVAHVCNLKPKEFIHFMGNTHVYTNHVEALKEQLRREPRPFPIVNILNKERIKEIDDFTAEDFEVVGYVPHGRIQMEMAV
Text: as §1, §2

[3] = target: T3, DHFR from Pneumocystis carinii (PC) (Pneumocystis carinii, UniProt P16184); assay: Inhibition of DHFR from Pneumocystis carinii (Pc); assay type: biochemical
T3 sequence (P16184 1-206): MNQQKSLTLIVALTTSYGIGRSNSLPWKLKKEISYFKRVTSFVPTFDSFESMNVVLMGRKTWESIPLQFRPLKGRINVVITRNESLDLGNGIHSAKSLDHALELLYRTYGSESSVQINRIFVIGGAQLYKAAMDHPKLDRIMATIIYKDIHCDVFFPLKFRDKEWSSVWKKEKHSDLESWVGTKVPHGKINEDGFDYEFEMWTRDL

| pIC50 [1] | Structure (SMILES) | Selectivity Ratio: RL DHFR/Tx DHFR [2] | pIC50 [2] | other results |
| --- | --- | --- | --- | --- |
| 4.28 | Nc1nc(N)c(Sc2nc(-c3ccccc3)cs2)c(=O)[nH]1 [Compound 199] | 4.3 | 4.91 |  |
| 4.00 | Nc1nc(N)c(Sc2ccncc2)c(=O)[nH]1 [Compound 179] | 11.9 | 5.07 |  |
| 5.09 | Nc1nc(N)c(SCc2ccccc2Cl)c(=O)[nH]1 [Compound 197] | 3.7 | 5.66 |  |
| 4.76 | Nc1nc(N)c(Sc2c(Cl)cccc2Cl)c(=O)[nH]1 [Compound 176] | 10.3 | 5.77 |  |
| 4.70 | Nc1nc(N)c(Sc2ccc(Cl)cc2)c(=O)[nH]1 [Compound 167] | 90.0 | 6.66 |  |
|  | Cc1cccc(CSc2c(N)nc(N)[nH]c2=O)c1 [Compound 196] | >7.18 # | 4.94 | RL DHFR inhibition at 90 μM ([1]; @ 90 μM): 3% @ 90 μM |
| 4.52 | Nc1nc(N)c(Sc2ccc3ccccc3c2)c(=O)[nH]1 [Compound 174] | 85.7 | 6.46 |  |
|  | COc1ccc(Sc2c(N)nc(N)[nH]c2=O)cc1OC [Compound 181] | >35.2# | 5.72 | inhibition at 67 µM ([1]; @ 67 μM): 19% |
| 4.82 | Nc1nc(N)c(Sc2ccc([N+](=O)[O-])cc2)c(=O)[nH]1 [Compound 185, 2,4-diamino-6-oxo-5-(4′-nitrophenylthio)pyrimidine] | 55.6 | 6.57 | melting point: > 300 °C (dec.) |
| 4.33 | Nc1nc(N)c(SCc2ccc(Br)cc2)c(=O)[nH]1 [Compound 202] | 24.6 | 5.72 |  |
| 5.33 | Nc1nc(N)c(Sc2ccccc2Cl)c(=O)[nH]1 [Compound 171] | 13.4 | 6.46 |  |
| 5.15 | Nc1nc(N)c(SCc2ccc(Cl)cc2Cl)c(=O)[nH]1 [Compound 193] | 10 | 6.15 |  |
| 4.27 | COc1cccc(Sc2c(N)nc(N)[nH]c2=O)c1 [Compound 175] | 92.1 | 6.24 |  |
| 4.62 | Nc1nc(N)c(SCc2ccc(Cl)c(Cl)c2)c(=O)[nH]1 [Compound 190] | 16.1 | 5.82 |  |
| 3.58 | COc1ccccc1Sc1c(N)nc(N)[nH]c1=O [Compound 198] | 45.3 | 5.24 |  |
|  | Nc1nc(N)c(SCc2ccc(Cl)cc2)c(=O)[nH]1 [Compound 180] | >3.16# | 4.78 | RL DHFR inhibition at 60 μM ([1]; @ 60 μM): 26% @ 60 μM |
| 3.91 | Nc1nc(N)c(Sc2ccc(C(=O)O)cc2)c(=O)[nH]1 [Compound 170] | 2.3 | 4.27 | RL/Pc selectivity ratio ([3]; IC50 RL DHFR divided by IC50 Pc DHFR): 1.4; pIC50 ([3]; Pneumocystis carinii DHFR): 4.05 |
| 4.39 | Nc1nc(N)c(SCc2ccccc2)c(=O)[nH]1 [Compound 187] | 7.7 | 5.28 |  |
| 4.69 | Nc1nc(N)c(Sc2cc(Cl)cc(Cl)c2)c(=O)[nH]1 [Compound 184] | 74.8 | 6.57 |  |
| 3.71 | Cc1ccc(CSc2c(N)nc(N)[nH]c2=O)cc1 [Compound 194] | 25.4 | 5.12 |  |
| 4.55 | COc1ccc(OC)c(Sc2c(N)nc(N)[nH]c2=O)c1 [Compound 169] | 142.5 | 6.70 |  |
| 4.01 | Nc1nc(N)c(Sc2cccc3ccccc23)c(=O)[nH]1 [Compound 165] | 198.4 | 6.31 |  |
| 5.64 | Nc1nc(N)c(Sc2ccc(Cl)cc2Cl)c(=O)[nH]1 [Compound 177] | 16.4 | 6.85 |  |
| 4.18 | COc1cccc(CSc2c(N)nc(N)[nH]c2=O)c1 [Compound 191] | 10.1 | 5.18 |  |
| 3.93 | Nc1nc(N)c(Sc2ccccn2)c(=O)[nH]1 [Compound 188] | 24.9 | 5.33 |  |
